Results on six compounds are retold here after ChEMBL document CHEMBL3046948, “Synthesis and SAR investigation of natural phenylpropene-derived methoxylated cinnamaldehydes and their novel Schiff bases as potent antimicrobial and antioxidant agents” (2013).

Molecules are shown by their SMILES. Converted amounts (≈) assume the structure as drawn. The source made the active and inactive calls. The calls are words filed in the database; no cut-off is given here.

Type in all cases: functional
For one experiment, the system named is Aspergillus niger. The experiment is described as follows: Antimicrobial activity against Aspergillus niger MTCC 404 assessed as growth inhibition after 5 days by broth microdilution method. A general note: In broth dilution the organism is exposed to a series of concentrations in liquid medium.
A further experiment has as its system Aspergillus parasiticus. The experiment is described as follows: Antimicrobial activity against Aspergillus parasiticus MTCC 2797 assessed as growth inhibition after 5 days by broth microdilution method.
The subject of the next experiment is Staphylococcus aureus. As to the kind of experiment: Antimicrobial activity against Staphylococcus aureus MTCC 3160 assessed as growth inhibition after 24 hr by broth microdilution method.
The next experiment deals with Klebsiella pneumoniae. The experiment is described as follows: Antimicrobial activity against Klebsiella pneumoniae MTCC 109 assessed as growth inhibition after 24 hr by broth microdilution method.
A further experiment has as its system Candida albicans. As to the kind of experiment: Antimicrobial activity against Candida albicans MTCC 3017 assessed as growth inhibition after 24 hr by broth microdilution method.
A further experiment deals with Escherichia coli. As to the kind of experiment: Antimicrobial activity against Escherichia coli MTCC 43 assessed as growth inhibition after 24 hr by broth microdilution method.
The test system of the next experiment is Aspergillus sydowii. The experiment is described as follows: Antimicrobial activity against Aspergillus sydowii MTCC 4335 assessed as growth inhibition after 5 days by broth microdilution method.
In another experiment the test system is Pseudomonas aeruginosa. As to the kind of experiment: Antimicrobial activity against Pseudomonas aeruginosa MTCC 424 assessed as growth inhibition after 24 hr by broth microdilution method.
For the next experiment, the system named is Burkholderia cepacia. The experiment is described as follows: Antimicrobial activity against Burkholderia cepacia MTCC 438 assessed as growth inhibition after 24 hr by broth microdilution method.
Another experiment concerns Trichophyton rubrum. The experiment is described as follows: Antimicrobial activity against Trichophyton rubrum MTCC 296 assessed as growth inhibition after 5 days by broth microdilution method.
A further experiment has as its system Bacillus subtilis. The experiment is described as follows: Antimicrobial activity against Bacillus subtilis MTCC 121 assessed as growth inhibition after 24 hr by broth microdilution method.
In experiment [1] the test system is Radical scavenging activity. As to the kind of experiment: Antioxidant activity assessed as inhibition of DPPH radical formation at 2 mg/ml after 30 min by spectrophotometric analysis. Background: The DPPH test is a chemical assay of radical scavenging.
A further experiment deals with Micrococcus luteus. As to the kind of experiment: Antimicrobial activity against Micrococcus luteus MTCC 2470 assessed as growth inhibition after 24 hr by broth microdilution method.
The test system of another experiment is Enterobacter cloacae. The experiment is described as follows: Antimicrobial activity against Enterobacter cloacae MTCC 509 assessed as growth inhibition after 24 hr by broth microdilution method.
For the next experiment, the system named is Pichia kudriavzevii. As to the kind of experiment: Antimicrobial activity against Pichia kudriavzevii MTCC 231 assessed as growth inhibition after 24 hr by broth microdilution method.

Consider `NC(=O)N/N=C/C=C/c1ccc2c(c1)OCO2`, for which the MIC result in the experiment on Aspergillus niger, in the experiment with Aspergillus parasiticus, in the experiment on Staphylococcus aureus, in the experiment with Klebsiella pneumoniae, in the experiment with Escherichia coli and with Aspergillus sydowii was “inactive” each time. The MIC entry in the experiment on Pseudomonas aeruginosa, in the experiment with Burkholderia cepacia, with Bacillus subtilis, in the experiment with Micrococcus luteus and with Enterobacter cloacae was “inactive” each time. For the same compound, the MIC in the experiment on Candida albicans (MTCC 3017, 24 h) was found to be 8570 µM (≈ 2000 µg/mL); with Trichophyton rubrum (MTCC 296, 120 h) it was 8570 µM (≈ 2000 µg/mL); in the experiment with Pichia kudriavzevii (MTCC 231, 24 h) it was 8570 µM (≈ 2000 µg/mL). Further, the inhibition in experiment [1] worked out at 2.37%.
Regarding `Clc1ccc2nc(/N=C/C=C/c3ccc4c(c3)OCO4)sc2c1`, the MIC entry with Aspergillus niger, in the experiment on Aspergillus parasiticus, in the experiment on Klebsiella pneumoniae, with Escherichia coli, in the experiment on Aspergillus sydowii and with Pseudomonas aeruginosa was “inactive” throughout. Further, the MIC entry with Enterobacter cloacae is “inactive”. Moreover, the MIC in the experiment with Staphylococcus aureus (MTCC 3160, 24 h) worked out at 730 µM (≈ 250 µg/mL); in the experiment with Candida albicans (MTCC 3017, 24 h) it was 730 µM (≈ 250 µg/mL); with Burkholderia cepacia (MTCC 438, 24 h), 730 µM (≈ 250 µg/mL); with Trichophyton rubrum (MTCC 296, 120 h), 730 µM (≈ 250 µg/mL); in the experiment on Bacillus subtilis (MTCC 121, 24 h), 730 µM (≈ 250 µg/mL); in the experiment with Micrococcus luteus (MTCC 2470, 24 h), 730 µM (≈ 250 µg/mL). For the same compound, the MIC in the experiment on Pichia kudriavzevii (MTCC 231, 24 h) was found to be 730 µM (≈ 250 µg/mL). The inhibition in experiment [1] was 80.7%.
With `Cc1ccc2nc(/N=C/C=C/c3ccc4c(c3)OCO4)sc2c1`, the MIC result in the experiment with Aspergillus niger, with Aspergillus parasiticus, in the experiment on Klebsiella pneumoniae, in the experiment on Escherichia coli, in the experiment with Aspergillus sydowii and in the experiment on Pseudomonas aeruginosa was “inactive” in each case. Besides, the MIC with Staphylococcus aureus (MTCC 3160, 24 h) worked out at 380 µM (≈ 123 µg/mL); with Candida albicans (MTCC 3017, 24 h) it was 770 µM (≈ 248 µg/mL); in the experiment on Burkholderia cepacia (MTCC 438, 24 h), 770 µM (≈ 248 µg/mL); in the experiment on Trichophyton rubrum (MTCC 296, 120 h), 770 µM (≈ 248 µg/mL); with Bacillus subtilis (MTCC 121, 24 h), 770 µM (≈ 248 µg/mL); with Micrococcus luteus (MTCC 2470, 24 h), 770 µM (≈ 248 µg/mL). Also, the MIC worked out at 770 µM (≈ 248 µg/mL) in the experiment with Enterobacter cloacae (MTCC 509, 24 h) and 770 µM (≈ 248 µg/mL) in the experiment with Pichia kudriavzevii (MTCC 231, 24 h). The inhibition in [1] was 3.19%.
For the compound `COc1ccc(/C=C/C=O)cc1OC` [3,4-DIMETHOXY CINNAMALDEHYDE], the MIC in the experiment on Aspergillus niger (MTCC 404, 120 h) came out at 5200 µM (≈ 1000 µg/mL); in the experiment on Aspergillus parasiticus (MTCC 2797, 120 h), 2600 µM (≈ 500 µg/mL); in the experiment on Staphylococcus aureus (MTCC 3160, 24 h) it was 5200 µM (≈ 1000 µg/mL); in the experiment with Klebsiella pneumoniae (MTCC 109, 24 h) it was 10400 µM (≈ 2000 µg/mL); in the experiment with Candida albicans (MTCC 3017, 24 h) it was 2600 µM (≈ 500 µg/mL); in the experiment on Escherichia coli (MTCC 43, 24 h) it was 10400 µM (≈ 2000 µg/mL). The minimum inhibitory concentration (MIC) in the experiment on Aspergillus sydowii (MTCC 4335, 120 h) stood at 5200 µM (≈ 1000 µg/mL); with Pseudomonas aeruginosa (MTCC 424, 24 h) it was 2600 µM (≈ 500 µg/mL); with Burkholderia cepacia (MTCC 438, 24 h), 5200 µM (≈ 1000 µg/mL); in the experiment on Trichophyton rubrum (MTCC 296, 120 h), 2600 µM (≈ 500 µg/mL); with Bacillus subtilis (MTCC 121, 24 h) it was 5200 µM (≈ 1000 µg/mL); in the experiment with Micrococcus luteus (MTCC 2470, 24 h) it was 2600 µM (≈ 500 µg/mL). The minimal inhibitory concentration (MIC) in the experiment with Enterobacter cloacae (MTCC 509, 24 h) turned out to be 10400 µM (≈ 2000 µg/mL); with Pichia kudriavzevii (MTCC 231, 24 h), 2600 µM (≈ 500 µg/mL).
On to `O=Cc1ccc2c(c1)OCO2` [PIPERONAL], for which the MIC in the experiment on Aspergillus niger (MTCC 404, 120 h) amounted to 3330 µM (≈ 500 µg/mL); with Aspergillus parasiticus (MTCC 2797, 120 h) it was 3330 µM (≈ 500 µg/mL); with Staphylococcus aureus (MTCC 3160, 24 h), 3330 µM (≈ 500 µg/mL); in the experiment on Klebsiella pneumoniae (MTCC 109, 24 h), 3330 µM (≈ 500 µg/mL); in the experiment on Candida albicans (MTCC 3017, 24 h), 830 µM (≈ 125 µg/mL); with Escherichia coli (MTCC 43, 24 h), 3330 µM (≈ 500 µg/mL). In addition, the MIC with Aspergillus sydowii (MTCC 4335, 120 h) came out at 3330 µM (≈ 500 µg/mL); with Pseudomonas aeruginosa (MTCC 424, 24 h) it was 830 µM (≈ 125 µg/mL); with Trichophyton rubrum (MTCC 296, 120 h) it was 830 µM (≈ 125 µg/mL); in the experiment with Bacillus subtilis (MTCC 121, 24 h), 6660 µM (≈ 1000 µg/mL); in the experiment on Micrococcus luteus (MTCC 2470, 24 h) it was 3330 µM (≈ 500 µg/mL); with Enterobacter cloacae (MTCC 509, 24 h), 3330 µM (≈ 500 µg/mL). Besides, the MIC in the experiment with Pichia kudriavzevii (MTCC 231, 24 h) was 830 µM (≈ 125 µg/mL). For the same compound, the MIC entry with Burkholderia cepacia was “inactive”.
As for `CCOC(=O)/C=C/c1ccc2c(c1)OCO2`, the MIC came out at 560 µM (≈ 123 µg/mL) with Aspergillus niger (MTCC 404, 120 h); 140 µM (≈ 30.8 µg/mL) with Aspergillus parasiticus (MTCC 2797, 120 h); 140 µM (≈ 30.8 µg/mL) in the experiment with Aspergillus sydowii (MTCC 4335, 120 h); 560 µM (≈ 123 µg/mL) in the experiment on Pseudomonas aeruginosa (MTCC 424, 24 h). Besides, the MIC entry with Staphylococcus aureus, in the experiment on Klebsiella pneumoniae, with Candida albicans, with Escherichia coli, in the experiment on Burkholderia cepacia and in the experiment on Trichophyton rubrum was “inactive” throughout. In addition, the MIC entry in the experiment on Bacillus subtilis, in the experiment on Micrococcus luteus, with Enterobacter cloacae and in the experiment on Pichia kudriavzevii was “inactive” each time.

In general, MIC refers to the least concentration at which growth counts as inhibited. Usually inhibition stands for the drop in the measured response relative to a control, in per cent.
